Molecules are shown by their SMILES. Non-standard residues stand in square brackets, D forms with d. Residues, ends and D or L forms follow the SMILES beside them. *: point of attachment. Nle = CCCC[C@H](N)C(=O)O; Cbz = O=C(OCc1ccccc1)*

Here are results for two compounds from patent US7901906B2, “Targeting of MKRN1 for identifying cancer treatment agents” (University of Central Florida Research Foundation, Inc., priority 2006, dated 2011).

In this assay the test system is MKRN1. In words: Levels of ectopically expressed MKRN1 by anti-V5 immunoblotting. Type of assay: cell-based, human. As to the method: FIG. 3. MKRN1 interacts with hTERT. (A) Analysis of the physical interaction between hTERT and MKRN1 using the yeast two-hybrid assay. Five domains of hTERT were analyzed for binding to MKRN1. TRF1 bait was used as a negative control. Blue signal on the SG-HWU/X plate indicates activation of the reporter gene, LacZ. S, synthetic; G, galactose; H, histidine (−); W, tryptophan (−); U, uracil (−); X, X-gal. (B) Schematic diagram of MKRN1 domains. Amino acid sequences (SEQ ID NOS 3-5, respectively in order of appearance) surrounding the RING finger domain in MKRN1 and mutants used in this study. Cysteines and a histidine in the RING finger domain are shown in red. Mutated residue in MKRN1^H307E is shown in blue. (C) H1299 cells co-transfected with hTERT-HA and MKRN1-V5 were either untreated or treated for 2 hours with 10 μg/ml ALLnN. Anti-HA immunoprecipitates were analyzed by immunoblotting using an anti-V5 antibody probe. […] (D) H1299 cells co-transfected with Flag-hTERT and MKRN1-V5 were either untreated or treated for 2 hours with 10 μM MG132. Anti-Flag immunoprecipitates were analyzed by immunoblotting using an anti-V5 antibody probe. […] Flag-hTERT was visualized with an anti-Flag antibody probe.
FIG. 4. MKRN1 functions as an E3 ubiquitin-ligase for hTERT in vitro and in vivo. (A) HA-tagged hTERT (residues 946-1132) was incubated MKRN1 or mutants in the presence of E1, E2, His6-ubiquitin (6×His tag disclosed as SEQ ID NO: 7). Samples were resolved by 6% SDS-PAGE and analyzed by immunoblotting with an anti-HA antibody probe. (B) H1299 cells were co-transfected with Flag-hTERT, HA-ubiquitin, MKRN1-V5, and together with either MKRN1^H307E-V5 or MKRN1^Δ^C-V5 as specified. Cells were untreated or treated with 10 μM MG132 for 2 hours. Anti-Flag immunoprecipitates and cell lysates were analyzed by immunoblotting with anti-HA antibody and anti-V5 antibody probes, respectively. (C) H1299 cells co-transfected with Flag-hTERT and HA-ubiquitin, and together with or without MKRN1-V5 as indicated were treated with 10 μM MG132 for the indicated times. Anti-Flag immunoprecipitates and cell lysates were analyzed by immunoblotting with anti-HA antibody and anti-V5 antibody probes, respectively.
FIG. 5. Overexpression of MKRN1 decreases telomerase activity and telomere length. (A) HT1080 cells were stably transfected with MKRN1-V5 or an empty vector. The cells were untreated or treated for 2 hours with 10 μM MG132. Cell lysates were analyzed by immunoblotting with anti-V5 antibody probe. (B) Stable HT1080 cell lines (MKRN1 and vector) were harvested at 45 PD, and telomerase activities were measured with different amounts of proteins using the TRAP assay. The lane labeled LB corresponds to the negative control (lysis buffer only). ITAS represents the internal telomerase assay standard. (C) Cell lysates from stable HT1080 cell lines were analyzed by immunoprecipitation with anti-hTERT antibody followed by immunoblotting using same antibody probe. (D) Representative results of RT-PCR analysis for the expression of MKRN1, hTERT, and hTR in stable HT1080 cell lines. RT-PCR products from each sample were normalized to glyceraldehyde-3-phosphate dehydrogenase (GAPDH) signal. (E) Stable HT1080 cell lines were harvested at 45 PD, and genomic DNA was digested with RsaI and HinfI, followed by Southern blotting using a telomere repeat probe.
H1299 cells were transiently transfected with the expression vectors indicated in the figure legends using TransFast transfection reagent (Promega, Madison, Wis.) according to the manufacturer's instructions. Cells were lysed with buffer containing 0.5% NP-40, 50 mM Tris-HCl (pH 7.5), 150 mM NaCl, 2 mM phenyl methylsulphonyl fluoride. […]
In general terms: Immunoblotting shows a protein as a band on a membrane.

Consider `CCCC[C@@H](C=O)NC(=O)[C@H](CC(C)C)NC(=O)[C@H](CC(C)C)NC(C)=O` [ALLnN] (Ac-Leu-Leu-[Nle]-aldehyde), for which the “MKRN1 species in cell lysates” value (H1299 co-transfected with hTERT-HA and MKRN1-V5, 10 μg/ml ALLnN, 2 hours) is “significant increase”.

Regarding `CC(C)C[C@@H](C=O)NC(=O)[C@H](CC(C)C)NC(=O)[C@H](CC(C)C)NC(=O)OCc1ccccc1` [MG132] (Cbz-Leu-Leu-Leu-aldehyde), the MKRN1 expression result (H1299, MKRN1-V5, 10 μM MG132, 2 hours) is on record as “clearly elevated”. The “unmodified and polyubiquitinated MKRN1 species over time” value (H1299, MKRN1-V5, 10 μM MG132, indicated times) is “increased in a time-dependent manner”. Also, where the note is “H1299, MKRN1^ΔC-V5, 10 μM MG132, 2 hours”, the “amount of MKRN1^ΔC” value is “no effect”. The “MKRN1^H307E expression level, MG132 treatment versus absence” value (H1299 cotransfected with MKRN1 and MKRN1^H307E, 10 μM MG132) is reported as about 2 fold. Besides, the “MKRN1 level in stable HT1080 cells” value (HT1080 stably expressing MKRN1-V5, 10 μM MG132, 2 hours) is reported as “substantial increase”.
